# Assay results taken from patent US9211238B2, “Carrier system for the transport of active substances into the skin” (priority 2010, dated 2015).
# Assay: Anti-oxidative potential (AP) in vitro, test radical DPPH, ESR spectroscopy
# Format: biochemical
# Conditions: 1% ferulic acid
# Procedure: The anti-oxidative potential (AP) of all described formulations was determined in vitro. In this method the formulations were incubated with a test radical (DPPH) and afterwards the reduction of these radicals over the time was measured by ESR (electron spin resonance spectroscopy). AP=amount of free radicals/mg of tested substance*minute.
smiles,measurement,value
"COc1cc(/C=C/C(=O)O)ccc1O [1% ferulic acid (EtOH/water), ferulic acid]",anti-oxidative potential (AP),AP = 723 amount of free radicals/mg of tested substance*minute
